The results in this text go back to paper PMC5218480 (PLoS ONE, 2017).

SMILES strings stand for the structures.

The experiment has as its system MV-4-11 cells. The experiment is described as follows: Gene expression microarray analysis (Affymetrix PrimeView) and GSEA. The class given is cell-based, human. Set-up: RFU PODN (11730768_x_at) / Fold change /veh PODN (11730768_x_at) / RFU LINC00158 (11744669_a_at) / Fold change /veh LINC00158 (11744669_a_at) / RFU DUSP10 (11751237_a_at) / Fold change /veh DUSP10 (11751237_a_at) / RFU ID3 (11757404_x_at) / Fold change /veh ID3 (11757404_x_at) / RFU PLEKHG5 (11737974_s_at) / Fold change /veh PLEKHG5 (11737974_s_at) / RFU LRRC4B (11730491_at) / Fold change /veh LRRC4B (11730491_at) / RFU GIMAP4 (11747438_a_at) / Fold change /veh GIMAP4 (11747438_a_at) / RFU KRT8 (11758183_x_at) / Fold change /veh KRT8 (11758183_x_at) / RFU CNN1 (11734310_a_at) / Fold change /veh CNN1 (11734310_a_at) / RFU VPS37D (11726825_at) / Fold change /veh VPS37D (11726825_at) / RFU C10orf10 (11716522_x_at) / Fold change /veh C10orf10 (11716522_x_at) / RFU KIR2DL2 /// KIR2DL4 /// KIR2DL5A /// KIR2DL5B /// KIR2DS1 /// KIR2DS2 /// KIR2DS3 /// KIR2DS4 /// KIR3DL3 /// KIR3DL3 /// KIR3DS1 (11738374_at) / Fold change /veh KIR2DL2 /// KIR2DL4 /// KIR2DL5A /// KIR2DL5B /// KIR2DS1 /// KIR2DS2 /// KIR2DS3 /// KIR2DS4 /// KIR3DL3 /// KIR3DL3 /// KIR3DS1 (11738374_at) / RFU C1QL1 (11718748_at) / Fold change /veh C1QL1 (11718748_at) / RFU TMPRSS4 (11747572_a_at) / Fold change /veh TMPRSS4 (11747572_a_at) / RFU HAMP (11756126_x_at) / Fold change /veh HAMP (11756126_x_at) / RFU RNFT2 (11725882_a_at) / Fold change /veh RNFT2 (11725882_a_at) / RFU NR4A2 (11747474_a_at) / Fold change /veh NR4A2 (11747474_a_at) / RFU ABCC12 (11746883_a_at) / Fold change /veh ABCC12 (11746883_a_at) / RFU TMEM136 (11760407_x_at) / Fold change /veh TMEM136 (11760407_x_at) / RFU CLDN22 /// WWC2 (11732394_at) / Fold change /veh CLDN22 /// WWC2 (11732394_at) / RFU HLA-DPB1 (11760878_x_at) / Fold change /veh HLA-DPB1 (11760878_x_at) / RFU SPINT1 (11716480_a_at) / Fold change /veh SPINT1 (11716480_a_at) / RFU GAP43 (11754022_s_at) / Fold change /veh GAP43 (11754022_s_at) / RFU A4GNT (11735810_at) / Fold change /veh A4GNT (11735810_at) / RFU PRB3 (11715151_x_at) / Fold change /veh PRB3 (11715151_x_at) / RFU TUBB4B (11761932_at) / Fold change /veh TUBB4B (11761932_at) / RFU CAPN14 (11732068_a_at) / Fold change /veh CAPN14 (11732068_a_at) / RFU TMCC2 (11721928_a_at) / Fold change /veh TMCC2 (11721928_a_at) / RFU IRGQ (11745062_a_at) / Fold change /veh IRGQ (11745062_a_at) / RFU FAM174B (11720279_a_at) / Fold change /veh FAM174B (11720279_a_at) / RFU TMPRSS4 (11748680_a_at) / Fold change /veh TMPRSS4 (11748680_a_at) / RFU FAM212B (11763350_a_at) / Fold change /veh FAM212B (11763350_a_at) / RFU PLEKHG5 (11743358_a_at) / Fold change /veh PLEKHG5 (11743358_a_at) / RFU ZSCAN30 (11745921_a_at) / Fold change /veh ZSCAN30 (11745921_a_at) / RFU CMKLR1 (11741424_a_at) / Fold change /veh CMKLR1 (11741424_a_at) / RFU LOC101060620 /// MAPK8IP1 (11723275_at) / Fold change /veh LOC101060620 /// MAPK8IP1 (11723275_at) / RFU SPTSSB (11747773_x_at) / Fold change /veh SPTSSB (11747773_x_at) / RFU PRSS12 (11739890_at) / Fold change /veh PRSS12 (11739890_at) / RFU BIN1 (11741810_x_at) / Fold change /veh BIN1 (11741810_x_at) / RFU WNT11 (11732464_a_at) / Fold change /veh WNT11 (11732464_a_at) / RFU C10orf10 (11716521_a_at) / Fold change /veh C10orf10 (11716521_a_at) / RFU C5orf56 (11738089_at) / Fold change /veh C5orf56 (11738089_at) / RFU CYB561 (11721691_x_at) / Fold change /veh CYB561 (11721691_x_at) / RFU ANKRD19P (11752326_a_at) / Fold change /veh ANKRD19P (11752326_a_at) / RFU OR2T12 /// OR2T33 /// OR2T8 (11738714_s_at) / Fold change /veh OR2T12 /// OR2T33 /// OR2T8 (11738714_s_at) / RFU VCAN (11748164_a_at) / Fold change /veh VCAN (11748164_a_at) / RFU JSRP1 (11732532_at) / Fold change /veh JSRP1 (11732532_at) / RFU KRTAP10-11 (11738290_x_at) / Fold change /veh KRTAP10-11 (11738290_x_at) / RFU MYO3A (11730013_a_at) / Fold change /veh MYO3A (11730013_a_at) / RFU EBF3 (11725865_a_at) / Fold change /veh EBF3 (11725865_a_at) / RFU CAMK2N1 (11719241_x_at) / Fold change /veh CAMK2N1 (11719241_x_at) / RFU C5orf56 (11738088_a_at) / Fold change /veh C5orf56 (11738088_a_at) / RFU OLFML3 (11715873_a_at) / Fold change /veh OLFML3 (11715873_a_at) / RFU LOC100653217 /// NTM (11731650_a_at) / Fold change /veh LOC100653217 /// NTM (11731650_a_at) / RFU MAPK11 (11762145_a_at) / Fold change /veh MAPK11 (11762145_a_at) / RFU FIZ1 (11724087_x_at) / Fold change /veh FIZ1 (11724087_x_at) / RFU OASL (11726364_x_at) / Fold change /veh OASL (11726364_x_at) / RFU SOX15 (11748057_x_at) / Fold change /veh SOX15 (11748057_x_at) / RFU CD79A (11719716_a_at) / Fold change /veh CD79A (11719716_a_at) / RFU HIST1H1D (11736915_at) / Fold change /veh HIST1H1D (11736915_at) / RFU CASKIN2 (11723855_a_at) / Fold change /veh CASKIN2 (11723855_a_at) / RFU LOC730098 (11760151_x_at) / Fold change /veh LOC730098 (11760151_x_at) / RFU OR4N2 (11742367_at) / Fold change /veh OR4N2 (11742367_at) / RFU PRRT2 (11749266_a_at) / Fold change /veh PRRT2 (11749266_a_at) / RFU SNX32 (11753110_a_at) / Fold change /veh SNX32 (11753110_a_at) / RFU CDHR5 (11726645_a_at) / Fold change /veh CDHR5 (11726645_a_at) / RFU RCAN1 (11760418_a_at) / Fold change /veh RCAN1 (11760418_a_at) / RFU FAM167A (11723789_a_at) / Fold change /veh FAM167A (11723789_a_at) / RFU FAM26E (11764081_at) / Fold change /veh FAM26E (11764081_at) / RFU ISYNA1 (11749810_s_at) / Fold change /veh ISYNA1 (11749810_s_at) / RFU ACY1 (11761880_at) / Fold change /veh ACY1 (11761880_at) / RFU 11764098_at / Fold change /veh 11764098_at / RFU SAMD14 (11745864_x_at) / Fold change /veh SAMD14 (11745864_x_at) / RFU NPB (11741838_a_at) / Fold change /veh NPB (11741838_a_at) / RFU TMPRSS6 (11731388_a_at) / Fold change /veh TMPRSS6 (11731388_a_at) / RFU KRTAP10-2 (11738614_at) / Fold change /veh KRTAP10-2 (11738614_at) / RFU ARHGAP8 /// PRR5-ARHGAP8 (11727945_x_at) / Fold change /veh ARHGAP8 /// PRR5-ARHGAP8 (11727945_x_at) / RFU KRTAP5-7 /// NADSYN1 (11734609_at) / Fold change /veh KRTAP5-7 /// NADSYN1 (11734609_at) / RFU RASL12 (11751679_a_at) / Fold change /veh RASL12 (11751679_a_at) / RFU CDKN2B (11736163_a_at) / Fold change /veh CDKN2B (11736163_a_at) / RFU PRF1 (11729649_at) / Fold change /veh PRF1 (11729649_at) / RFU, ZNF638 /// ZNF638-IT1 / Fold change vs veh, ZNF638 /// ZNF638-IT1 / RFU, PANK3 / Fold change vs veh, PANK3 / RFU, SH3YL1 / Fold change vs veh, SH3YL1 / RFU, ZEB2 / Fold change vs veh, ZEB2 / RFU, NRIP1 / Fold change vs veh, NRIP1 / RFU, PTTG1IP / Fold change vs veh, PTTG1IP / RFU, CAPN2 / Fold change vs veh, CAPN2 / RFU, MED14 / Fold change vs veh, MED14 / RFU, SNORA58 / Fold change vs veh, SNORA58 / RFU, C1orf63 / Fold change vs veh, C1orf63 / RFU, LRRFIP1 / Fold change vs veh, LRRFIP1 / RFU, NDUFAF7 / Fold change vs veh, NDUFAF7 / RFU, SLC12A2 / Fold change vs veh, SLC12A2 / RFU, IBTK / Fold change vs veh, IBTK / RFU, ESF1 / Fold change vs veh, ESF1 / Fold change vs veh, TMEM50B / RFU, TAOK1 / Fold change vs veh, TAOK1 / RFU, ACBD3 / Fold change vs veh, ACBD3 / RFU, TMA16 / Fold change vs veh, TMA16 / RFU, RWDD3 / Fold change vs veh, RWDD3 / RFU, BCAT1 / Fold change vs veh, BCAT1 / RFU, EDEM3 / Fold change vs veh, EDEM3 / RFU, TMEM33 / Fold change vs veh, TMEM33 / RFU, WDR75 / Fold change vs veh, WDR75 / RFU, AHCTF1 / Fold change vs veh, AHCTF1 / RFU, TFRC / Fold change vs veh, TFRC / RFU, ZDHHC17 / Fold change vs veh, ZDHHC17 / RFU, NOM1 / Fold change vs veh, NOM1 / RFU, ARL8B / Fold change vs veh, ARL8B / RFU, ZBTB11 / Fold change vs veh, ZBTB11 / RFU, TAMM41 / Fold change vs veh, TAMM41 / RFU, KIAA1704 /// LOC100996395 / Fold change vs veh, KIAA1704 /// LOC100996395 / RFU, ING1 / Fold change vs veh, ING1 / RFU, TRMT61B / Fold change vs veh, TRMT61B / RFU, FUBP3 / Fold change vs veh, FUBP3 / RFU, TP53 / Fold change vs veh, TP53 / RFU, TNKS2 / Fold change vs veh, TNKS2 / RFU, ZFP14 / Fold change vs veh, ZFP14 / RFU, ACTR2 / Fold change vs veh, ACTR2 / RFU, PPP3R1 / Fold change vs veh, PPP3R1 / RFU, PIK3R1 / Fold change vs veh, PIK3R1 / RFU, HNRNPA1 / Fold change vs veh, HNRNPA1 / RFU, RNF170 / Fold change vs veh, RNF170 / RFU, ZNF28 / Fold change vs veh, ZNF28 / RFU, RNGTT / Fold change vs veh, RNGTT / RFU, OGT / Fold change vs veh, OGT / RFU, BRD1 / Fold change vs veh, BRD1 / RFU, MARS / Fold change vs veh, MARS / RFU, ZNF655 / Fold change vs veh, ZNF655 / RFU, FAHD1 / Fold change vs veh, FAHD1 / RFU, BDP1 / Fold change vs veh, BDP1 / RFU, LRRCC1 / Fold change vs veh, LRRCC1 / RFU, ARID1A / Fold change vs veh, ARID1A / RFU, ZNF146 / Fold change vs veh, ZNF146 / RFU, ZNF330 / Fold change vs veh, ZNF330 / RFU, GPN3 / Fold change vs veh, GPN3 / RFU, C9orf123 / Fold change vs veh, C9orf123 / RFU, N4BP2L2 / Fold change vs veh, N4BP2L2 / RFU, ARFIP1 / Fold change vs veh, ARFIP1 / RFU, FAM179B / Fold change vs veh, FAM179B / RFU, BCL10 / Fold change vs veh, BCL10 / RFU, UHRF1BP1L / Fold change vs veh, UHRF1BP1L / RFU, BET1 / Fold change vs veh, BET1 / RFU, CNOT2 / Fold change vs veh, CNOT2 / RFU, ZNF268 / Fold change vs veh, ZNF268 / Fold change vs veh, ZNF507 / RFU, DGCR2 / Fold change vs veh, DGCR2 / RFU, WDSUB1 / Fold change vs veh, WDSUB1 / Fold change vs veh, HSP90B1 /// MIR3652 / RFU, ADSS / Fold change vs veh, ADSS / RFU, GK / Fold change vs veh, GK / RFU, ZNF148 / Fold change vs veh, ZNF148 / RFU, TAF9 / Fold change vs veh, TAF9 / RFU, SLC1A5 / Fold change vs veh, SLC1A5 / RFU, SLMO2 / Fold change vs veh, SLMO2 / RFU, ABCC4 / Fold change vs veh, ABCC4 / RFU, LOC101060439 /// RAP1B / Fold change vs veh, LOC101060439 /// RAP1B / RFU, RFX7 / Fold change vs veh, RFX7 / RFU, GTPBP10 / Fold change vs veh, GTPBP10 / RFU, CNEP1R1 / Fold change vs veh, CNEP1R1 / RFU, BIVM-ERCC5 /// ERCC5 / Fold change vs veh, BIVM-ERCC5 /// ERCC5 / RFU, ILF3 / Fold change vs veh, ILF3 / RFU 11762660_at / Fold change /veh 11762660_at / RFU VCAN (11757783_s_at) / Fold change /veh VCAN (11757783_s_at) / RFU DDX43 (11728927_at) / Fold change /veh DDX43 (11728927_at) / RFU KRT8 (11758188_x_at) / Fold change /veh KRT8 (11758188_x_at) / RFU NKD1 (11759106_at) / Fold change /veh NKD1 (11759106_at) / RFU SRD5A1 (11742802_a_at) / Fold change /veh SRD5A1 (11742802_a_at) / RFU TPSAB1 /// TPSB2 (11721975_s_at) / Fold change /veh TPSAB1 /// TPSB2 (11721975_s_at) / RFU GSTM3 (11746129_a_at) / Fold change /veh GSTM3 (11746129_a_at) / RFU IL23R (11737362_x_at) / Fold change /veh IL23R (11737362_x_at) / RFU TMEM51 (11727254_a_at) / Fold change /veh TMEM51 (11727254_a_at) / RFU PIWIL2 (11732686_x_at) / Fold change /veh PIWIL2 (11732686_x_at) / RFU ORM1 (11744905_x_at) / Fold change /veh ORM1 (11744905_x_at) / RFU CCDC152 (11743942_at) / Fold change /veh CCDC152 (11743942_at) / RFU ECM1 (11717891_a_at) / Fold change /veh ECM1 (11717891_a_at) / RFU IL23R (11748794_a_at) / Fold change /veh IL23R (11748794_a_at) / RFU TNFAIP8L3 (11732012_x_at) / Fold change /veh TNFAIP8L3 (11732012_x_at) / RFU MBOAT4 (11741988_at) / Fold change /veh MBOAT4 (11741988_at) / RFU 11764193_at / Fold change /veh 11764193_at / RFU TMEM53 (11763286_at) / Fold change /veh TMEM53 (11763286_at) / RFU MAGEB2 (11727129_at) / Fold change /veh MAGEB2 (11727129_at) / RFU TMEM200A (11744735_a_at) / Fold change /veh TMEM200A (11744735_a_at) / RFU CCDC152 (11751479_a_at) / Fold change /veh CCDC152 (11751479_a_at) / RFU FAM211A (11726209_a_at) / Fold change /veh FAM211A (11726209_a_at) / RFU RGS16 (11746705_a_at) / Fold change /veh RGS16 (11746705_a_at) / RFU VCAN (11755009_s_at) / Fold change /veh VCAN (11755009_s_at) / RFU RHOB (11743442_s_at) / Fold change /veh RHOB (11743442_s_at) / RFU RGS16 (11720943_a_at) / Fold change /veh RGS16 (11720943_a_at) / RFU RGS16 (11720944_at) / Fold change /veh RGS16 (11720944_at) / RFU, VPS4B / Fold change vs veh, VPS4B / RFU, CREB1 / Fold change vs veh, CREB1 / RFU, DNAJC13 / Fold change vs veh, DNAJC13 / RFU, GNAQ / Fold change vs veh, GNAQ / RFU, CDK5R1 / Fold change vs veh, CDK5R1 / RFU, ZRANB3 / Fold change vs veh, ZRANB3 / RFU, CUL4A / Fold change vs veh, CUL4A / RFU, CCNY / Fold change vs veh, CCNY / RFU, UFL1 / Fold change vs veh, UFL1 / RFU, COG3 / Fold change vs veh, COG3 / RFU, DIAPH2 / Fold change vs veh, DIAPH2 / RFU, SKA2 / Fold change vs veh, SKA2 / RFU, AFF3 / Fold change vs veh, AFF3 / RFU, LMF1 / Fold change vs veh, LMF1 / RFU, IPO11 / Fold change vs veh, IPO11 / RFU, DFFB / Fold change vs veh, DFFB / RFU, FOXP1 / Fold change vs veh, FOXP1 / RFU, CARD8 / Fold change vs veh, CARD8 / RFU, STRN3 / Fold change vs veh, STRN3 / RFU, ADK / Fold change vs veh, ADK / RFU, RASSF2 / Fold change vs veh, RASSF2 / RFU, WIPF1 / Fold change vs veh, WIPF1 / RFU, LARP1B / Fold change vs veh, LARP1B / RFU, RASA1 / Fold change vs veh, RASA1 / RFU, RB1 / Fold change vs veh, RB1 / RFU, PPFIA1 / Fold change vs veh, PPFIA1 / RFU, MAT2A / Fold change vs veh, MAT2A / RFU, CCT5 / Fold change vs veh, CCT5 / RFU, WDR92 / Fold change vs veh, WDR92 / RFU, CUX1 / Fold change vs veh, CUX1 / RFU, TTC7A / Fold change vs veh, TTC7A / RFU, TMEM135 / Fold change vs veh, TMEM135 / RFU, DEPTOR / Fold change vs veh, DEPTOR / RFU, CPM / Fold change vs veh, CPM / RFU, DNAJB6 / Fold change vs veh, DNAJB6 / RFU, CACNA2D3 / Fold change vs veh, CACNA2D3 / RFU, DTX4 / Fold change vs veh, DTX4 / RFU, TFCP2 / Fold change vs veh, TFCP2 / RFU, GMCL1 /// GMCL1P1 / Fold change vs veh, GMCL1 /// GMCL1P1 / RFU, AEBP2 / Fold change vs veh, AEBP2 / RFU, SNHG1 /// SNORD22 /// SNORD25 /// SNORD26 /// SNORD27 /// SNORD28 /// SNORD29 /// SNORD31 / Fold change vs veh, SNHG1 /// SNORD22 /// SNORD25 /// SNORD26 /// SNORD27 /// SNORD28 /// SNORD29 /// SNORD31 / Fold change (Aza/veh), C12orf56 (ProbeSet 11735607_a_at) / Fold change (ACY-1035/veh), C12orf56 (ProbeSet 11735607_a_at) / Fold change (Aza/veh), FGFR1OP (ProbeSet 11751329_s_at) / Fold change (ACY-1035/veh), FGFR1OP (ProbeSet 11751329_s_at) / Fold change (Aza/veh), VPS36 (ProbeSet 11739960_a_at) / Fold change (ACY-1035/veh), VPS36 (ProbeSet 11739960_a_at) / RFU SYPL1 (11715823_x_at) / Fold change /veh SYPL1 (11715823_x_at) / RFU IGFBP7 (11715501_s_at) / Fold change /veh IGFBP7 (11715501_s_at) / RFU REEP3 (11722064_at) / Fold change /veh REEP3 (11722064_at) / RFU IGLL1 (11728026_x_at) / Fold change /veh IGLL1 (11728026_x_at): dose or concentration left out as unconfirmed. The settings on record: MV-4-11 cells, 48 hours.

Turning to `Nc1ccc(-c2cccs2)cc1NC(=O)c1ccc2c(c1)cc(C1CC1)n2CCN1CCOCC1` [ACY-1035], the “RFU CCDC152 (11751479_a_at)” value was found to be 4.13 RFU.
